# Patent US20230011869A1 (Hoffmann-La Roche Inc., priority 2018, published 2023)
# Structures can show the parent of a compound that is named as a salt. Where two headings read alike, the source gives them in different places.
# System: Acinetobacter baumannii ATCC17978
# Test: Antimicrobial susceptibility testing: 90% growth inhibitory concentration (IC90) determination, Iso-Sensitest broth
# Assay type: cell-based
# How it was run: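 A. baumannii ATCC17978 grown in Iso-Sensitest broth across 10 compound concentrations at 35±2 °C.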
# [1] = Acinetobacter baumannii, ATCC17978, 16 h, read-out: ATCC17978 IC90, 90% growth inhibitory concentration, Acinetobacter baumannii ATCC17978, Iso-Sensitest broth, OD 600 nm over 16 h
# [2] = 90% growth inhibitory concentration, Acinetobacter baumannii ATCC17978, Iso-Sensitest broth, OD 600 nm over 16 h, read-out: ATCC17978 IC90
Structure (SMILES),IC90 [2],IC90 [1],other results
"Cc1cc(Nc2nccn3c(-c4ccc(OC(F)F)cc4)cnc23)ccc1C(=O)N1CCOC(CN)C1 (stereo not shown) [Example 364, [2-(aminomethyl)morpholin-4-yl]-[4-[[3-[4-(difluoromethoxy)phenyl]imi-dazo[1,2-a]pyrazin-8-yl]amino]-2-methylphenyl]methanone; hy-drochloride]",,530 nM,
"Cc1cc(Nc2nccn3c(-c4ccc(OC(F)F)cc4)cnc23)ccc1C(=O)N1CCC2(CCNCC2)C1 [Example 381, 2,8-diazaspiro[4.5]decan-2-yl-[4-[[3-[4-(difluoromethoxy)phenyl]imi-dazo[1,2-a]pyrazin-8-yl]amino]-2-methylphenyl]methanone; hy-drochloride]",,2900 nM,
"COc1ccc(-c2cnc3c(Nc4ccc(C(=O)N5CCN(C(=O)[C@@H]6C[C@@H](OC(=O)[C@@H]7CCCN7)CN6)CC5)c(C)c4)nccn23)c(F)c1F [Example 551, [(3R,5S)-5-[4-[4-[[3-(2,3-difluoro-4-methoxy-phenyl)imidazo[1,2-a]pyrazin-8-yl]amino]-2-methyl-benzoyl]piperazine-1-carbonyl]pyrrolidin-3-yl] pyrrolidine-2-carboxylate formate]",,196 nM,
"COc1ccc(-c2cnc3c(Nc4ccc(C(=O)N5CCN(C(=O)[C@H](CCN)NC(=O)CC[C@H](N)C(=O)O)CC5)c(C)c4)nccn23)c(F)c1F [Example 532, (2S)-2-amino-5-[[(2S)-4-amino-1-[4-[4-[[3-(2,3-difluoro-4-methoxyphenyl)imidazo[1,2-a]pyrazin-8-yl]amino]-2-methylbenzoyl]piperazin-1-yl]-1-oxobutan-2-yl]amino]-5-oxopentanoic acid; hydrochloride]",,1200 nM,
"COc1ccc(-c2cnc3c(Nc4ccc(C(=O)N5CCC(C(=O)N(C)CCCN)CC5)c(C)c4)nccn23)cc1F [Example 406, N-(3-aminopropyl)-1-[4-[[3-(3-fluoro-4-methoxyphenyl)imidazo[1,2-a]pyrazin-8-yl]amino]-2-methylbenzoyl]-N-methylpiperidine-4-carboxamide; hydrochloride]",,530 nM,
"Cc1cc(Nc2nccn3c(-c4ccc(OC(F)F)cc4)cnc23)ccc1C(=O)N1CCC(Cn2ccnc2)CC1 [Example 353, [4-[[3-[4-(difluoromethoxy)phenyl]imi-dazo[1,2-a]pyrazin-8-yl]amino]-2-methylphenyl]-[4-(imidazol-1-ylmethyl)piperidin-1-yl]methanone]",,240 nM,
"COc1ccc(-c2cnc3c(Nc4ccc(C(=O)N5CCC(C(=O)N6CC7(CNC7)C6)CC5)c(C)c4)nccn23)cc1F [Example 400, [4-(2,6-diazaspiro[3.3]heptane-2-carbonyl)piperidin-1-yl]-[4-[[3-(3-fluoro-4-methoxyphenyl)imidazo[1,2-a]pyrazin-8-yl]amino]-2-methylphenyl]methanone; 2,2,2-trifluoroacetic acid]",,390 nM,
"Cc1cc(Nc2nccn3c(-c4ccc(OC(F)F)cc4)cnc23)ccc1C(=O)N1CCN(CC(=O)N2CCCC2)CC1 [Example 377, 2-[4-[4-[[3-[4-(difluoromethoxy)phenyl]imi-dazo[1,2-a]pyrazin-8-yl]amino]-2-methylbenzoyl]piperazin-1-yl]-1-pyrrolidin-1-ylethanone]",,2300 nM,
"CCc1cc(Nc2nccn3c(-c4ccc(OC)c(F)c4)cnc23)ccc1C(=O)N1CCC(CN)CC1 [Example 386, [4-(aminomethyl)piperidin-1-yl]-[2-ethyl-4-[[3-(3-fluoro-4-methoxyphenyl)imidazo[1,2-a]pyrazin-8-yl]amino]phenyl]methanone; formic acid]",,180 nM,
"Cc1cc(Nc2nccn3c(-c4ccc(OC(F)F)cc4)cnc23)ccc1C(=O)N1CCN(C(=O)[C@@H]2CNCCO2)CC1 [Example 341, [4-[[3-[4-(difluoromethoxy)phenyl]imi-dazo[1,2-a]pyrazin-8-yl]amino]-2-methylphenyl]-[4-[(2S)-morpholine-2-carbonyl]piperazin-1-yl]methanone; hydrochloride]",,520 nM,
"Cc1cc(Nc2nccn3c(-c4ccc(OCC#N)c(F)c4F)cnc23)ccc1C(=O)N1CCN(C(=O)NCCN)CC1 [Example 139, N-(2-aminoethyl)-4-[4-[[3-[4-(cyanomethoxy)-2,3-difluoro-phenyl]imidazo[1,2-a]pyrazin-8-yl]amino]-2-methyl-benzoyl]piperazine-1-carboxamide formate]",130 nM,,
"Cc1cc(Nc2nccn3c(-c4ccc(OC(F)F)cc4)cnc23)ccc1C(=O)N1CCN(C(=O)CNC(=N)N)CC1 [Example 333, 1-[2-[4-[4-[[3-[4-(difluoromethoxy)phenyl]imi-dazo[1,2-a]pyrazin-8-yl]amino]-2-methylbenzoyl]piperazin-1-yl]-2-oxoethyl]guanidine]",,,"IC90 (read-out: ATCC17978 IC90, 90% growth inhibitory concentration, Acinetobacter baumannii ATCC17978, Iso-Sensitest broth, OD 600 nm over 16 h): 410 nM"
"Cc1cc(Nc2nccn3c(-c4ccc(OCC#N)c(F)c4F)cnc23)ccc1C(=O)N1CCC(C(=O)N2CCNC[C@H]2CO)CC1 [Example 492, 2-[2,3-difluoro-4-[8-[4-[4-[(2S)-2-(hydroxymethyl)piperazine-1-carbonyl]piperidine-1-carbonyl]-3-methylanilino]imidazo[1,2-a]pyrazin-3-yl]phenoxy]acetonitrile; for-mic acid]",310 nM,,
"COc1ccc(-c2cnc3c(Nc4ccc(C(=O)N5CCN(C(=O)[C@@H]6C[C@@H](OC(=O)[C@@H](N)CCC(N)=O)CN6)CC5)c(C)c4)nccn23)c(F)c1F [Example 565, [(3R,5S)-5-[4-[4-[[3-(2,3-difluoro-4-methoxy-phenyl)imidazo[1,2-a]pyrazin-8-yl]amino]-2-methyl-benzoyl]piperazine-1-carbonyl]pyrrolidin-3-yl] (2S)-2,5-diamino-5-oxo-pentanoate formate]",,109 nM,

# Now from value to compound, other results behind:
IC90 [2],Structure (SMILES),IC90 [1],other results
510 nM,"COc1ccc(-c2cnc3c(Nc4ccc(C(=O)N5CCC(CN)CC5)c(C)c4)nccn23)c(Cl)c1 [Example 109, (4-(aminomethyl)piperidin-1-yl)(4-((3-(2-chloro-4-methoxyphenyl)imidazo[1,2-a]pyrazin-8-yl)amino)-2-methylphenyl)methanone]",,
180 nM,"Cc1cc(Nc2nccn3c(-c4ccc(OC(F)F)cc4)cnc23)ccc1C(=O)N1CCN(C(=O)[C@@H]2C[C@H](O)CN2)CC1 [Example 182, [4-[[3-[4-(difluoromethoxy)phenyl]imidazo[1,2-a]pyrazin-8-yl]amino]-2-methyl-phenyl]-[4-[(2S,4S)-4-hydroxypyrrolidine-2-carbonyl]piperazin-1-yl]methanone hydrochloride hydrochloride]",,
1300 nM,"Cc1cc(Nc2nccn3c(-c4ccc(OC(F)F)cc4)cnc23)ccc1C(=O)N1CCC2(CC1)CNCCO2 [Example 17, (4-((3-(4-(difluoromethoxy)phenyl)imidazo[1,2-a]pyrazin-8-yl)amino)-2-methylphenyl)(1-oxa-4,9-diazaspiro[5.5]undecan-9-yl)methanone]",,
5200 nM,"COc1ccc(-c2cnc3c(Nc4ccc(C(=O)N5CCC(N(C)C)C5)c(C)c4)nccn23)cc1 (stereo not shown) [Example 384, [3-(dimethylamino)pyrrolidin-1-yl]-[4-[[3-(4-methoxyphenyl)imidazo[1,2-a]pyrazin-8-yl]amino]-2-methylphenyl]methanone]",,
140 nM,"Cc1cc(Nc2nccn3c(-c4ccc(OC(F)F)cc4)cnc23)ccc1C(=O)N1CCN(C(=O)NC[C@H](C)N)CC1 [Example 151, N-[(2S)-2-aminopropyl]-4-[4-[[3-[4-(difluoromethoxy)phenyl]imidazo[1,2-a]pyrazin-8-yl]amino]-2-methyl-benzoyl]piperazine-1-carboxamide hydrochloride]",,
190 nM,"CO[C@@H]1CNC[C@H]1NC(=O)N1CCN(C(=O)c2ccc(Nc3nccn4c(-c5ccc(OC(F)F)cc5)cnc34)cc2C)CC1 (racemic) [Example 171, 4-[4-[[3-[4-(difluoromethoxy)phenyl]imidazo[1,2-a]pyrazin-8-yl]amino]-2-methyl-benzoyl]-N-[rac-(3R,4R)-4-methoxypyrrolidin-3-yl]piperazine-1-carboxamide hydrochloride]",,
330 nM,"COc1ccc(-c2cnc3c(Nc4ccc(C(=O)N5CCN(C6CNC6)CC5)c(C)c4)nccn23)cc1F [Example 73, (4-(azetidin-3-yl)piperazin-1-yl)(4-((3-(3-fluoro-4-methoxyphenyl)imidazo[1,2-a]pyrazin-8-yl)amino)-2-methylphenyl)methanone hydrochloride]",,
770 nM,"COc1ccc(-c2cnc3c(Nc4ccc(C(=O)NC5CC6(CNC6)C5)c(C)c4)nccn23)cc1F [Example 414, N-(2-azaspiro[3.3]heptan-6-yl)-4-[[3-(3-fluoro-4-methoxyphenyl)imidazo[1,2-a]pyrazin-8-yl]amino]-2-methylbenzamide; hydrochlo-ride]",,
190 nM,"COc1ccc(-c2cnc3c(Nc4ccc(C(=O)N5CCN(C(=O)C6CNC6)CC5)c(C)c4)nccn23)c(F)c1F [Example 203, [4-(azetidine-3-carbonyl)piperazin-1-yl]-[4-[[3-(2,3-difluoro-4-methoxy-phenyl)imidazo[1,2-a]pyrazin-8-yl]amino]-2-methyl-phenyl]methanone; hydrochloride]",,
340 nM,"COc1ccc(-c2cnc3c(Nc4ccc(C(=O)N5CCC(C(=O)N6CCNC7(CC7)C6)CC5)c(C)c4)nccn23)cc1F [Example 395, [4-(4,7-diazaspiro[2.5]octane-7-carbonyl)piperidin-1-yl]-[4-[[3-(3-fluoro-4-methoxyphenyl)imidazo[1,2-a]pyrazin-8-yl]amino]-2-methylphenyl]methanone; hy-drochloride]",,
92 nM,"Cc1cc(Nc2nccn3c(-c4ccc(OCC#CCO)c(F)c4)cnc23)ccc1C(=O)N1CCC(CCN)CC1 [Example 246, [4-(2-aminoethyl)-1-piperidyl]-[4-[[3-[3-fluoro-4-(4-hydroxybut-2-ynoxy)phenyl]imidazo[1,2-a]pyrazin-8-yl]amino]-2-methyl-phenyl]methanone]",,
